The source of these data is patent US20250288561A1, “NEZULCITINIB FOR DELIVERY BY NEBULIZED ORAL INHALATION” (THERAVANCE BIOPHARMA R&D IP, LLC, priority 2022, published 2025).

Series [1] deals with T1, JAK3 (Homo sapiens, UniProt P52333).
T1 sequence (P52333 1-1124): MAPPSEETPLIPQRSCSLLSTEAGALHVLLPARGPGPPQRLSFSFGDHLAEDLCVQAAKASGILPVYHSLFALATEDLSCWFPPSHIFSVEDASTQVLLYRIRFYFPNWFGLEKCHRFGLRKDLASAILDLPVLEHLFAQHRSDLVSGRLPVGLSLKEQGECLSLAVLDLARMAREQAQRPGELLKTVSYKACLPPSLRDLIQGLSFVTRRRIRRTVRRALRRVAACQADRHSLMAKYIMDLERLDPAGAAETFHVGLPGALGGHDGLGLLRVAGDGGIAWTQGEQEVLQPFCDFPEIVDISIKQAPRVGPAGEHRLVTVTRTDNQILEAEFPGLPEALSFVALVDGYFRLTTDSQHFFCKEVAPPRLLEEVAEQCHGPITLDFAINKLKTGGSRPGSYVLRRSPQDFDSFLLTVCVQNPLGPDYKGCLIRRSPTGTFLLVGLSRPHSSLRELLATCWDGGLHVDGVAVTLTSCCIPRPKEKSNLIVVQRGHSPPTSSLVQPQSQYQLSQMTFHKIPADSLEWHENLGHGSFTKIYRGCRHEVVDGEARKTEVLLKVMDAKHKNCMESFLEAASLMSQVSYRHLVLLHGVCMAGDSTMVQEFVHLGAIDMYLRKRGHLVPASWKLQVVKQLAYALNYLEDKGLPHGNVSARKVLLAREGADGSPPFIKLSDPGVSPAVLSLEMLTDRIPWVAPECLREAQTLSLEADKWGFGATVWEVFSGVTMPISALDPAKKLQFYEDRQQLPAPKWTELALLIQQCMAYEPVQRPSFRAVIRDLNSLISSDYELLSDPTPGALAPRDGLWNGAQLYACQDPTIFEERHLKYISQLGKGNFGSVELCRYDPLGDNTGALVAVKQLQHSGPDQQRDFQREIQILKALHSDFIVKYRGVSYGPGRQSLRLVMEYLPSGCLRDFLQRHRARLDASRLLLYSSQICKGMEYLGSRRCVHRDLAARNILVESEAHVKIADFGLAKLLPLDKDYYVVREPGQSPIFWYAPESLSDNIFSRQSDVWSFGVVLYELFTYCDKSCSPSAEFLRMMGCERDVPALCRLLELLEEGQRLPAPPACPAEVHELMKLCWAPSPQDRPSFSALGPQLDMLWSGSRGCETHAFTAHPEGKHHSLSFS
The series is described as follows: JAK enzyme inhibition. The series is classed as biochemical.

The nature of series [2]: Sulfation metabolism. It counts as in vitro ADME.
Series [3] is described as follows: Earlier phase 1 clinical trial, nebulized inhalation: plasma pharmacokinetics. Conditions: for maximal plasma exposure, fold lower than the protein-adjusted JAK IC50: inhaled. The series is classed as in vivo, human. On the procedure: (§1) Compound 1 was evaluated in a phase 1 clinical trial and dosed in humans through nebulized inhalation at 1 mg, 3 mg, and 10 mg for up to 7 days. […] The pharmacokinetics of inhaled compound 1 are consistent with low plasma exposures after inhaled administration. […] Additionally, absolute NK cell counts were evaluated after multiple-dosing to assess the potential for systemic pharmacologic effects associated with JAK inhibition by compound 1. […] The lack of reduction in NK cell counts is also consistent with the lack of systemic JAK inhibition. […] Other systemically mediated hematological changes associated with JAK inhibition, including neutrophil and hemoglobin reductions as well as lipid changes, were not observed with inhaled administration of compound 1.
(§2) The selected dose of 3 mg in the present study was consistent with the dose in a recently completed Phase 2 study. In addition, the 3 mg dose ensured adequate characterization of the nezulcitinib PK profile. Dose levels up to 9 mg of nezulcitinib were also evaluated (Administration D2). This dose level was within the range of doses tested previously (up to 10 mg of nezulcitinib) in healthy participants and those with COVID-19 in previous clinical studies.

Series [4] addresses Abl2 (Homo sapiens, UniProt P42684). The series is described as follows: Abelson kinase inhibition. The series is classed as biochemical.
Series [5] in a line: Earlier phase 1 clinical trial: safety, tolerability, hematological and lipid changes. It counts as in vivo, human. On the procedure:
as §1, §2

In series [6] the test system is IFNγ signaling. The series is described as follows: Inhibition of cytokine signaling. It counts as cell-based.
Series [7] addresses TYK2 (Homo sapiens, UniProt P29597). The series is described as follows: JAK enzyme inhibition. It counts as biochemical.

Chain of Abl2 (P42684 whole entry): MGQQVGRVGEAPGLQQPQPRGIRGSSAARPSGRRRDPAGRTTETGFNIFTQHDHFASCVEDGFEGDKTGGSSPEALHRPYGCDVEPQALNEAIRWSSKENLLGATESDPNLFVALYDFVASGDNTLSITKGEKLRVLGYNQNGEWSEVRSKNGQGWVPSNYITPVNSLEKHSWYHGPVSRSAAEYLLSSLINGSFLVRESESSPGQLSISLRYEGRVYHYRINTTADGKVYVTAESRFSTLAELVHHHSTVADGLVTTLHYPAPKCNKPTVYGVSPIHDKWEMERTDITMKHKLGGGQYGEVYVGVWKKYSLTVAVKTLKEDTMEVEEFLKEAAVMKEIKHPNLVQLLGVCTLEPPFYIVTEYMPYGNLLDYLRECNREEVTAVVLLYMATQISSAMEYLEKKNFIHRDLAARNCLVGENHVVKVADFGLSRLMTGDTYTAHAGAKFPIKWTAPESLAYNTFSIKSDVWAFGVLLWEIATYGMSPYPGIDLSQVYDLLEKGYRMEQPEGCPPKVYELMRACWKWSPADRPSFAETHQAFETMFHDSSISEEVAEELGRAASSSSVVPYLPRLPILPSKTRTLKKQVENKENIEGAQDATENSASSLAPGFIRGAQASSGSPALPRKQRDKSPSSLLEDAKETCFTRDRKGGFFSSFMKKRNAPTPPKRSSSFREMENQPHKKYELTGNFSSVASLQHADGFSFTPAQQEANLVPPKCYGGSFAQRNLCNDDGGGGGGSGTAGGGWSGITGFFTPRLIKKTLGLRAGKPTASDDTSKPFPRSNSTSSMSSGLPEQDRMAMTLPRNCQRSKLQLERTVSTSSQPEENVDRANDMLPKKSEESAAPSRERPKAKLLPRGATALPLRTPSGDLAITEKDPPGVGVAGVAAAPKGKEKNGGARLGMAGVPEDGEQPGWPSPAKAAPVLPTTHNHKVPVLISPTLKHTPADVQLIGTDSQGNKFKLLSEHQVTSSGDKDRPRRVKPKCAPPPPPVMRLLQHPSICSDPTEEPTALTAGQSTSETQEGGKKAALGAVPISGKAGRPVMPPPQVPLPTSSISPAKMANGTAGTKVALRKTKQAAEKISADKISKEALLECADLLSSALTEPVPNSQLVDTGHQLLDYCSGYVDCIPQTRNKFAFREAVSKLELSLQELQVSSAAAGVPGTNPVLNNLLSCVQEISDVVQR
Chain of TYK2 (P29597 whole entry): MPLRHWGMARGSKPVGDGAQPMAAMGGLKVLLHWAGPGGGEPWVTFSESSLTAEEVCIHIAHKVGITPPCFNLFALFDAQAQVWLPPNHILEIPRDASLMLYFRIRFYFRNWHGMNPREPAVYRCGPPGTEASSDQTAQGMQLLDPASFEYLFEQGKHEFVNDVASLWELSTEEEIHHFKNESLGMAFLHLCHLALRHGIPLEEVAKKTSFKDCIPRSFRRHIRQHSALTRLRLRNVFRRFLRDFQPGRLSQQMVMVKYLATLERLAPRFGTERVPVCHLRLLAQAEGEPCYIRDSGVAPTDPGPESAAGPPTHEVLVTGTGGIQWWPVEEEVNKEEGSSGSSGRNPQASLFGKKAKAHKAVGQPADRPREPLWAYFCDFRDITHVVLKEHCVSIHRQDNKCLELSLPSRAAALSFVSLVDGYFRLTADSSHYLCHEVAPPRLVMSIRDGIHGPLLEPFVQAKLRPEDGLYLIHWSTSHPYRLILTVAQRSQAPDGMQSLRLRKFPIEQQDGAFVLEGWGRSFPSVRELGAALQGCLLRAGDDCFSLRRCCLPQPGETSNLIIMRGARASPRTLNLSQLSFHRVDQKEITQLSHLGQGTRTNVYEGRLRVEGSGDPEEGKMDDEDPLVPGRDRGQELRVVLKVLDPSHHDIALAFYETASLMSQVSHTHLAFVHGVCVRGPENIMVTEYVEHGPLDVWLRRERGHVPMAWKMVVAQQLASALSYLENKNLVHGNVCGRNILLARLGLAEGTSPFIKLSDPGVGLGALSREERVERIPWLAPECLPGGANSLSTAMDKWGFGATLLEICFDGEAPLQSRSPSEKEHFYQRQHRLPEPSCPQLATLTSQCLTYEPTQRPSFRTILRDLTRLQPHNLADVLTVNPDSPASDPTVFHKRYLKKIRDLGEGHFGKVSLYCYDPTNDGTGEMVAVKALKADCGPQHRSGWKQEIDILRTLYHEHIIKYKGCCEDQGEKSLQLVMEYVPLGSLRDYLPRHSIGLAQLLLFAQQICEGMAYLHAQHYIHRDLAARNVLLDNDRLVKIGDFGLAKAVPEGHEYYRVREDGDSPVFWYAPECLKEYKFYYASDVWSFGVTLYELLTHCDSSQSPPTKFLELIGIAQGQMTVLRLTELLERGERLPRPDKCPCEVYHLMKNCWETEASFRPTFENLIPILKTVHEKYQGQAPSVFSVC

Regarding `CCc1cc(O)ccc1-c1ccc2c(-c3nc4c([nH]3)CN(C(C)C)[C@H](C(=O)N3CC(N(C)C)C3)C4)n[nH]c2c1` [Compound 1, (S)-(3-(dimethylamino)azetidin-1-yl)(2-(6-(2-ethyl-4-hydroxyphenyl)-1H-indazol-3-yl)-5-isopropyl-4,5,6,7-tetrahydro-3H-imidazo[4,5-c]pyridin-6-yl)methanone], the “inhibition of JAK3” value in series [1] is reported as “potent inhibitor”. Moreover, the “sulfation metabolism compared to corresponding fluorinated analog” value in series [2] was “significantly less sulfation metabolism”. Also, the figures for the “maximal plasma exposure, fold lower than the protein-adjusted JAK IC50” value in series [3] (dose level 3 mg) and in series [3] (dose level 10 mg) were “about 20 fold” and “about 7 fold”, respectively. For the same compound, in series [3] (nebulized inhalation at 1 mg, 3 mg and 10 mg for up to 7 days), the “plasma Cmax relative to the binding-corrected JAK IC50” value was “well under the binding-corrected JAK IC50”. Moreover, the “dose proportionality of systemic exposure (AUC0-24) and Cmax” value in series [3] (single and multiple doses, 1 to 10 mg) is “increased in a dose proportional manner”. Further, the “inhibition of Abl2” value in series [4] is “potently inhibit”. In addition, in series [5] (inhaled administration), the “neutrophil and hemoglobin reductions, lipid changes” value was “not observed”. Also, the safety and tolerability entry in series [5] (single and multiple doses of 1, 3, and 10 mg, healthy adult participants) was “safe and well tolerated”. Also, the “plasma concentrations with low-flow nasal oxygen therapy compared to healthy subjects without supplemental oxygen therapy” value (human, in vivo) is recorded as “similar”. Also, where the note is “phase 2”, the plasma exposure result is “low”. The “inhibition of IFNγ signaling” value in series [6] is recorded as “shown to inhibit”. Besides, in series [7], the “inhibition of TYK2” value is “potent inhibitor”.
